Values of other authors, collected in US20250188060A1, “ALPHA1A-ADRENERGIC RECEPTOR AGONISTS AND METHODS OF USE” (CuraSen Therapeutics, Inc., priority 2022, published 2025).
Structures can show the parent of a compound that is named as a salt. Where two headings read alike, the source gives them in different places.

What was measured:
α1A-adrenergic receptor [1] = target: T1, α1A-adrenergic receptor (Homo sapiens, UniProt P35348); conditions: as compared to noradrenaline; InsPs accumulation assay; Blue et al., Table 1; cited from earlier work
T1 sequence (P35348 1-466): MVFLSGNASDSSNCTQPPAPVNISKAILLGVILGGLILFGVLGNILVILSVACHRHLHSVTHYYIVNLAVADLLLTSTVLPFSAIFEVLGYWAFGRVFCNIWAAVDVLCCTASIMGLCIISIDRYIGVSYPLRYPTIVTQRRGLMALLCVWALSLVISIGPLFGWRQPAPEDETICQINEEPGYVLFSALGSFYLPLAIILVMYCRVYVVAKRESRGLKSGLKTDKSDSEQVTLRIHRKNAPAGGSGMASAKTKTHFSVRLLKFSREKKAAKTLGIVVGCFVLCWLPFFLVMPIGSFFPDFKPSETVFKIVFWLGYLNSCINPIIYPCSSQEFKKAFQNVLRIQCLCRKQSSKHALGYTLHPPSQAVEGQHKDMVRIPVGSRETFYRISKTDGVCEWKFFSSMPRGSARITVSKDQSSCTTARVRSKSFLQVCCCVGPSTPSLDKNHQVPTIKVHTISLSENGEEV

α1A-adrenergic receptor [2] = target: T1, α1A-adrenergic receptor; conditions: as compared to noradrenaline; FLIPR assay; Blue et al., Table 1; cited from earlier work

## Cc1c(OCC2=NCCN2)ccc(Cl)c1NS(C)(=O)=O [RO 115-1240 (dabuzalgron) HCl salt, dabuzalgron]
α1A-adrenergic receptor [1]
  intrinsic activity: 0.27
α1A-adrenergic receptor [2]
  intrinsic activity: 0.51

## Cc1c(OCC2=NCCN2)ccc(Cl)c1NS(C)(=O)=O [RO 115-1240 (dabuzalgron) free base, dabuzalgron]
α1A-adrenergic receptor [1]
  intrinsic activity: 0.31
